For 15 compounds, EC50 results are on record in patent US9018208B2, “Heterocycles as potassium channel modulators” (Icagen Inc., priority 2007, dated 2015).

pEC50: −log10 of the molar value. Some results are limits rather than exact numbers.

This experiment relates to SH-SY5Y M-currents (KCNQ2, KCNQ3 and KCNQ5). The experiment is described as follows: SH-SY5Y native cell line FLIPR assay (voltage-sensitive dye DiBAC). Particulars: SH-SY5Y native cell line, FLIPR assay (Table 3); read-out: SH-SY5Y EC50. It counts as cell-based, mouse neuroblastoma, rat glioma hybrid cell line. The essentials:
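Response is peak DiBAC fluorescence change, normalised to the maximum from a positive control agent, sampled every 30 s over 25 min. Before compound addition, SH-SY5Y cells differentiated with PGE1 plus isomethylbutylxanthine were dye-loaded for 1 h in EBSS with […] DiBAC.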
Consider `Cc1ccc(-c2c(NC(=O)CC(C)(C)C)nc3ccc(F)cn23)nc1` [Compound 359, N-(6-fluoro-3-(5-methylpyridin-2-yl)imidazo[1,2-a]pyridin-2-yl)-3,3-dimethylbutanamide], for which the pEC50 was 5.52 to 6.30.
Under `CC(C)(C)CC(=O)Nc1nc2ccc(F)cn2c1-c1cccc(C(F)(F)F)n1` [Compound 361, N-(6-fluoro-3-(6-(trifluoromethyl)pyridin-2-yl)imidazo[1,2-a]pyridin-2-yl)-3,3-dimethylbutanamide] stands greater than 6.30; under `CC(C)(C)CC(=O)Nc1nc2ccc(F)cn2c1-c1ncccn1` [Compound 362, N-(6-fluoro-3-(pyrimidin-2-yl)imidazo[1,2-a]pyridin-2-yl)-3,3-dimethylbutanamide], 5.00 to 5.52.
In the case of `CC(C)(C)CC(=O)Nc1nc2ccc(F)cn2c1-c1cc(Cl)ccn1` [Compound 364, N-(3-(4-chloropyridin-2-yl)-6-fluoroimidazo[1,2-a]pyridin-2-yl)-3,3-dimethylbutanamide] it was 5.52 to 6.30; in that of `Cc1ccnc(-c2c(NC(=O)CC(C)(C)C)nc3ccc(F)cn23)c1` [Compound 365, N-(6-fluoro-3-(4-methylpyridin-2-yl)imidazo[1,2-a]pyridin-2-yl)-3,3-dimethylbutanamide], 5.52 to 6.30; in that of `COc1cccc(-c2c(NC(=O)CC(C)(C)C)nc3ccc(F)cn23)n1` [Compound 367, N-(6-fluoro-3-(6-methoxypyridin-2-yl)imidazo[1,2-a]pyridin-2-yl)-3,3-dimethylbutanamide], 5.52 to 6.30.
Consider `CC(C)C(C)C(=O)Nc1nc2ccc(F)cn2c1-c1ccc(F)cn1` (stereo not drawn) [Compound 368, N-(6-fluoro-3-(5-fluoropyridin-2-yl)imidazo[1,2-a]pyridin-2-yl)-2,3-dimethylbutanamide], for which the pEC50 is 5.00 to 5.52.
In the case of `CC(CC(=O)Nc1nc2ccc(F)cn2c1-c1ccc(F)cn1)C(F)(F)F` (stereo not drawn) [Compound 369, 4,4,4-trifluoro-N-(6-fluoro-3-(5-fluoropyridin-2-yl)imidazo[1,2-a]pyridin-2-yl)-3-methylbutanamide] it was 5.00 to 5.52; in that of `CC(C)n1cc(-c2c(NC(=O)CC(C)(C)C)nc3ccc(F)cn23)cn1` [Compound 370, N-(6-fluoro-3-(1-isopropyl-1H-pyrazol-4-yl)imidazo[1,2-a]pyridin-2-yl)-3,3-dimethylbutanamide], 5.00 to 5.52.
For the compound `CC(C)(C)CCC(=O)Nc1nc2ccc(F)cn2c1-c1nc2ccccc2s1` [Compound 372, N-(3-(benzo[d]thiazol-2-yl)-6-fluoroimidazo[1,2-a]pyridin-2-yl)-4,4-dimethylpentanamide], the pEC50 was 5.52 to 6.30.
For the compound `CC(C)C(C)C(=O)Nc1nc2ccc(F)cn2c1-c1nc2ccccc2s1` (stereo not drawn) [Compound 373, N-(3-(benzo[d]thiazol-2-yl)-6-fluoroimidazo[1,2-a]pyridin-2-yl)-2,3-dimethylbutanamide], the pEC50 was 5.00 to 5.52.
In the case of `CC(CC(=O)Nc1nc2ccc(F)cn2c1-c1nc2ccccc2s1)C(F)(F)F` (stereo not drawn) [Compound 374, N-(3-(benzo[d]thiazol-2-yl)-6-fluoroimidazo[1,2-a]pyridin-2-yl)-4,4,4-trifluoro-3-methylbutanamide] it was 5.00 to 5.52; in that of `CC1(CC(=O)Nc2nc3ccc(F)cn3c2-c2nc3ccccc3s2)CCCC1` [Compound 375, N-(3-(benzo[d]thiazol-2-yl)-6-fluoroimidazo[1,2-a]pyridin-2-yl)-2-(1-methylcyclopentyl)acetamide], greater than 6.30; in that of `CC(C)(C)CC(=O)Nc1nc2ccc(C(F)(F)F)cn2c1-c1nc2ccccc2s1` [Compound 376, N-(3-(benzo[d]thiazol-2-yl)-6-(trifluoromethyl)imidazo[1,2-a]pyridin-2-yl)-3,3-dimethylbutanamide], greater than 6.30.
Consider `CC(C)(C)CC(=O)Nc1nc2ccc(F)cn2c1-c1nccc(C(F)(F)F)n1` [Compound 377, N-(6-fluoro-3-(4-(trifluoromethyl)pyrimidin-2-yl)imidazo[1,2-a]pyridin-2-yl)-3,3-dimethylbutanamide], for which the pEC50 is 5.00 to 5.52.

What is called pEC50 is −log10 of the EC50, conventionally taken in molar units.
